Measured values as given in US10508077B2 (FORMA Therapeutics, Inc., priority 2015, dated 2019).

Key:
[1] = molecular target: T1, Full length human recombinant HDAC8 protein (Homo sapiens, UniProt Q9BY41); test: In vitro histone deacetylase assay: enzymatic HDAC8 assay, electrophoretic mobility shift; type: biochemical; details: substrate RHKK(Ac)-NH2, 1 nM enzyme, compounds listed under IC50 range headings
T1 construct: Full length human recombinant HDAC8 protein was expressed in baculoviral system; made in house
T1 sequence (Q9BY41 1-377): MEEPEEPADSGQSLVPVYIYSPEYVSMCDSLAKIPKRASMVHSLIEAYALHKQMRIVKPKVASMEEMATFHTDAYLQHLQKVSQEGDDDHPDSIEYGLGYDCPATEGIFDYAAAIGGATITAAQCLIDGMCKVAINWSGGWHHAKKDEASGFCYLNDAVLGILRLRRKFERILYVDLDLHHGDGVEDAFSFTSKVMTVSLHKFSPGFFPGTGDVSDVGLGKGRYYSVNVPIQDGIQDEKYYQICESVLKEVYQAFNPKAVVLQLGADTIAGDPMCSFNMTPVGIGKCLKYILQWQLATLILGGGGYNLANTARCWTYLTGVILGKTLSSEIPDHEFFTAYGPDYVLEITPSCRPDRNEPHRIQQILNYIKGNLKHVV
Outline: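 Baculovirus-expressed full-length human HDAC8 (1 nM) deacetylated 2 µM fluorescent RHKK(Ac)-NH2 peptide in pH 7.5 HEPES, 1% DMSO, at 25 °C, with 12 compound concentrations at 3× spacing. SDS-quenched; product and substrate resolved by microfluidic electrophoresis, P/(S+P) converted to percent inhibition, and IC50 obtained by 4-parameter fit.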

[2] = molecular target: T2, Recombinant N-terminal GST tag full-length human HDAC8 (Homo sapiens, UniProt Q9BY41); test: HDAC8 probe binding assay, time resolved fluorescence (TRF); details: fluorescein labeled pan-HDAC inhibitor probe, 16 hours incubation, compounds listed under IC50 range headings
T2 construct: Recombinant N-terminal GST tag full-length human HDAC8; purchased SignalChem H90-30G-1000; host or cells: Sf9 insect cells (baculovirus)
T2 sequence (Q9BY41 1-377): T1 sequence (Q9BY41 1-377)
Outline: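 TR-FRET probe displacement using GST-tagged full-length human HDAC8 (Sf9-expressed, 2.5 nM) with 1.5 nM fluorescein-labelled pan-HDAC inhibitor probe and anti-GST terbium, in HEPES pH 7.5 buffer with GSH, BGG, Triton X-100. Compounds 25 μM–1.3 nM, 10-point; 16 h at room temperature. IC50 from 4-parameter fit of % inhibition versus no-enzyme and DMSO controls.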

O=C(/C=C/c1ccccc1N1CCN(C(=O)c2ccc3[nH]ccc3c2)CC1)NO [Example I-208, (E)-3-(2-(4-(1H-indole-5-carbonyl)piperazin-1-yl)phenyl)-N-hydroxyacrylamide]
IC50 [1]: < 1 µM
IC50 [2]: ≤ 1 µM

Cn1ccc(S(=O)(=O)NC2CCN(c3ccccc3/C=C/C(=O)NO)CC2)n1 [Example I-219, (E)-N-hydroxy-3-(2-(4-((1-methyl-1H-pyrazole)-3-sulfonamido)piperidin-1-yl)phenyl)acrylamide]
IC50 [1]: < 1 µM
IC50 [2]: ≤ 1 µM

Cn1ccnc1S(=O)(=O)N1CCN(c2ccccc2/C=C/C(=O)NO)CC1 [Example I-252, (E)-N-hydroxy-3-(2-(4-((1-methyl-1H-imidazol-2-yl)sulfonyl)piperazin-1-yl)phenyl)acrylamide]
IC50 [1]: < 1 µM
IC50 [2]: ≤ 1 µM

O=C(/C=C/c1ccccc1N1CCC(c2ccccc2)C1=O)NO (centres unmarked) [Example I-262, (E)-N-hydroxy-3-(2-(2-oxo-3-phenylpyrrolidin-1-yl)phenyl)acrylamide]
IC50 [1]: < 1 µM
IC50 [2]: ≤ 1 µM

CC(C)(C)OC(=O)N1CCN(c2ccccc2/C=C/C(=O)NO)C(=O)C1 [Example I-263, tert-butyl (E)-4-(2-(3-(hydroxyamino)-3-oxoprop-1-en-1-yl)phenyl)-3-oxopiperazine-1-carboxylate]
IC50 [1]: < 1 µM
IC50 [2]: ≤ 1 µM

Cc1oc(C(C)(C)C)cc1C(=O)Nc1ccccc1/C=C/C(=O)NO [Example I-265, (E)-5-(tert-butyl)-N-(2-(3-(hydroxyamino)-3-oxoprop-1-en-1-yl)phenyl)-2-methylfuran-3-carboxamide]
IC50 [1]: < 1 µM
IC50 [2]: ≤ 1 µM

O=C(/C=C/c1ccccc1NC(=O)c1cnn(-c2ccc(Cl)cc2)c1C(F)(F)F)NO [Example I-266, (E)-1-(4-chlorophenyl)-N-(2-(3-(hydroxyamino)-3-oxoprop-1-en-1-yl)phenyl)-5-(trifluoromethyl)-1H-pyrazole-4-carboxamide]
IC50 [1]: < 1 µM
IC50 [2]: ≤ 1 µM

O=C(/C=C/c1ccccc1NC(=O)c1ccccc1Oc1ccc(Cl)cc1)NO [Example I-268, (E)-2-(4-chlorophenoxy)-N-(2-(3-(hydroxyamino)-3-oxoprop-1-en-1-yl)phenyl)benzamide]
IC50 [1]: < 1 µM
IC50 [2]: ≤ 1 µM

CCCn1c(C(=O)Nc2ccccc2/C=C/C(=O)NO)cc2ccccc21 [Example I-270, (E)-N-(2-(3-(hydroxyamino)-3-oxoprop-1-en-1-yl)phenyl)-1-propyl-1H-indole-2-carboxamide]
IC50 [1]: < 1 µM
IC50 [2]: ≤ 1 µM

CCn1nc(C)cc1C(=O)Nc1ccccc1/C=C/C(=O)NO [Example I-274, (E)-1-ethyl-N-(2-(3-(hydroxyamino)-3-oxoprop-1-en-1-yl)phenyl)-3-methyl-1H-pyrazole-5-carboxamide]
IC50 [1]: < 1 µM
IC50 [2]: ≤ 1 µM

Cc1onc(-c2c(Cl)cccc2Cl)c1C(=O)Nc1ccccc1/C=C/C(=O)NO [Example I-275, (E)-3-(2,6-dichlorophenyl)-N-(2-(3-(hydroxyamino)-3-oxoprop-1-en-1-yl)phenyl)-5-methylisoxazole-4-carboxamide]
IC50 [1]: < 1 µM
IC50 [2]: ≤ 1 µM

CCC(Oc1ccccc1)C(=O)Nc1ccccc1/C=C/C(=O)NO (centres unmarked) [Example I-281, (E)-N-(2-(3-(hydroxyamino)-3-oxoprop-1-en-1-yl)phenyl)-2-phenoxybutanamide]
IC50 [1]: < 1 µM
IC50 [2]: ≤ 1 µM

O=C(/C=C/c1ccccc1NC(=O)[C@@H]1C[C@H]2CC[C@@H]1O2)NO [Example I-282, (1S,2R,4R)-N-(2-((E)-3-(hydroxyamino)-3-oxoprop-1-en-1-yl)phenyl)-7-oxabicyclo[2.2.1]heptane-2-carboxamide]
IC50 [1]: < 1 µM
IC50 [2]: ≤ 1 µM

Cc1cc(C)n(Cc2ccc(C(=O)Nc3ccccc3/C=C/C(=O)NO)cc2)n1 [Example I-288, (E)-4-((3,5-dimethyl-1H-pyrazol-1-yl)methyl)-N-(2-(3-(hydroxyamino)-3-oxoprop-1-en-1-yl)phenyl)benzamide]
IC50 [1]: < 1 µM
IC50 [2]: ≤ 1 µM

COc1ccc(CN2CCN(c3ccccc3/C=C/C(=O)NO)C(=O)C2)cc1 [Example I-293, (E)-N-hydroxy-3-(2-(4-(4-methoxybenzyl)-2-oxopiperazin-1-yl)phenyl)acrylamide]
IC50 [1]: < 1 µM
IC50 [2]: ≤ 1 µM

Cc1cc(C(=O)N2CCN(c3ccccc3/C=C/C(=O)NO)CC2)n(C)n1 [Example I-298, (E)-3-(2-(4-(1,3-dimethyl-1H-pyrazole-5-carbonyl)piperazin-1-yl)phenyl)-N-hydroxyacrylamide]
IC50 [1]: < 1 µM
IC50 [2]: ≤ 1 µM

O=C(/C=C/c1ccccc1NC(=O)c1ccccc1Oc1ccc(C(F)(F)F)cc1)NO [Example I-303, (E)-N-(2-(3-(hydroxyamino)-3-oxoprop-1-en-1-yl)phenyl)-2-(4-(trifluoromethyl)phenoxy)benzamide]
IC50 [1]: < 1 µM
IC50 [2]: ≤ 1 µM

COc1ccccc1Oc1ccccc1C(=O)Nc1ccccc1/C=C/C(=O)NO [Example I-304, (E)-N-(2-(3-(hydroxyamino)-3-oxoprop-1-en-1-yl)phenyl)-2-(2-methoxyphenoxy)benzamide]
IC50 [1]: < 1 µM
IC50 [2]: ≤ 1 µM

O=C(/C=C/c1ccccc1NC(=O)c1ccccc1Oc1ccc(F)cc1)NO [Example I-306, (E)-2-(4-fluorophenoxy)-N-(2-(3-(hydroxyamino)-3-oxoprop-1-en-1-yl)phenyl)benzamide]
IC50 [1]: < 1 µM
IC50 [2]: ≤ 1 µM

CC(=O)NC1CCN(c2ccccc2/C=C/C(=O)NO)C1 (centres unmarked) [Example I-307, (E)-3-(2-(3-acetamidopyrrolidin-1-yl)phenyl)-N-hydroxyacrylamide]
IC50 [1]: < 1 µM
IC50 [2]: ≤ 1 µM

O=C(/C=C/c1ccccc1N1CC(c2ccccc2)CC1=O)NO (centres unmarked) [Example I-309, (E)-N-hydroxy-3-(2-(2-oxo-4-phenylpyrrolidin-1-yl)phenyl)acrylamide]
IC50 [1]: < 1 µM
IC50 [2]: ≤ 1 µM

CC(C)(C)OC(=O)N1CCC2(CC1)CCN(c1ccccc1/C=C/C(=O)NO)C2=O [Example I-310, tert-butyl (E)-2-(2-(3-(hydroxyamino)-3-oxoprop-1-en-1-yl)phenyl)-1-oxo-2,8-diazaspiro[4.5]decane-8-carboxylate]
IC50 [1]: < 1 µM
IC50 [2]: ≤ 1 µM

O=C(/C=C/c1ccccc1NC(=O)c1cnc(-c2ccccc2F)s1)NO [Example I-311, (E)-2-(2-fluorophenyl)-N-(2-(3-(hydroxyamino)-3-oxoprop-1-en-1-yl)phenyl)thiazole-5-carboxamide]
IC50 [1]: < 1 µM
IC50 [2]: ≤ 1 µM

O=C(/C=C/c1ccccc1NC(=O)c1cnc(-c2ccccn2)s1)NO [Example I-312, (E)-N-(2-(3-(hydroxyamino)-3-oxoprop-1-en-1-yl)phenyl)-2-(pyridin-2-yl)thiazole-5-carboxamide]
IC50 [1]: < 1 µM
IC50 [2]: ≤ 1 µM

O=C(/C=C/c1ccccc1NC(=O)c1ccncc1N1CCOCC1)NO [Example I-313, (E)-N-(2-(3-(hydroxyamino)-3-oxoprop-1-en-1-yl)phenyl)-3-morpholinoisonicotinamide]
IC50 [1]: < 1 µM
IC50 [2]: ≤ 1 µM

O=C(/C=C/c1ccccc1NC(=O)c1ccccc1Oc1cccnc1)NO [Example I-314, (E)-N-(2-(3-(hydroxyamino)-3-oxoprop-1-en-1-yl)phenyl)-2-(pyridin-3-yloxy)benzamide]
IC50 [1]: < 1 µM
IC50 [2]: ≤ 1 µM

Cc1nc(C)c(CN2CCN(c3ccccc3/C=C/C(=O)NO)CC2)s1 [Example I-315, (E)-3-(2-(4-((2,4-dimethylthiazol-5-yl)methyl)piperazin-1-yl)phenyl)-N-hydroxyacrylamide]
IC50 [1]: < 1 µM
IC50 [2]: ≤ 1 µM

Cc1cc(CN2C[C@@H]3C[C@H]2CN3c2ccccc2/C=C/C(=O)NO)n(C)n1 [Example I-317, (E)-3-(2-((1S,4S)-5-((1,3-dimethyl-1H-pyrazol-5-yl)methyl)-2,5-diazabicyclo[2.2.1]heptan-2-yl)phenyl)-N-hydroxyacrylamide]
IC50 [1]: < 1 µM
IC50 [2]: ≤ 1 µM

O=C(/C=C/c1ccccc1NC(=O)c1cnc(N2CCOCC2)s1)NO [Example I-319, (E)-N-(2-(3-(hydroxyamino)-3-oxoprop-1-en-1-yl)phenyl)-2-morpholinothiazole-5-carboxamide]
IC50 [1]: < 1 µM
IC50 [2]: ≤ 1 µM

Cc1onc(-c2ccccc2Cl)c1C(=O)Nc1ccccc1/C=C/C(=O)NO [Example I-320, (E)-3-(2-chlorophenyl)-N-(2-(3-(hydroxyamino)-3-oxoprop-1-en-1-yl)phenyl)-5-methylisoxazole-4-carboxamide]
IC50 [1]: < 1 µM
IC50 [2]: ≤ 1 µM

O=C(/C=C/c1ccccc1N1CCN(C(=O)C2(c3cccnc3)CC2)CC1)NO [Example I-321, (E)-N-hydroxy-3-(2-(4-(1-(pyridin-3-yl)cyclopropane-1-carbonyl)piperazin-1-yl)phenyl)acrylamide]
IC50 [1]: < 1 µM
IC50 [2]: ≤ 1 µM
